Experimental data taken from patent publication US7998754B2, “In vitro method for the simultaneous detection and identification of antibiotics of different classes and corresponding diagnostic kit” (Unisensor S.A., priority 2005, dated 2011).
Like-named read-outs stand apart in the source and are kept apart here.

Tests used:
β-lactame receptor (RSA) [1] = biological target: T1, β-lactame receptor (RSA) (Staphylococcus aureus, UniProt P18357); format: binding; settings: milk
T1 construct: made in house
T1 sequence (P18357 331-585 limits assumed): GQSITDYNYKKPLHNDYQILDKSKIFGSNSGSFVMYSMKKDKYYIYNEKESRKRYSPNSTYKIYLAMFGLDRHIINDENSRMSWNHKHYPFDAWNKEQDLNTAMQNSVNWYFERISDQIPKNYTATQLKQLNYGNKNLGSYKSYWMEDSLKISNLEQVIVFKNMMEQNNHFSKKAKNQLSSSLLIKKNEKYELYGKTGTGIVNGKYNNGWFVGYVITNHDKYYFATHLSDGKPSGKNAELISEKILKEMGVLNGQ
Description: (§1) This mixture is prepared either as required or lyophilisated for 20 hours. The Recovery System
(§2) The other capture zones are identical but differently positioned, as in FIG. 2.
(§3) A single control zone serves as a reference for the three markers.
(§4) 200 μL of cold milk are incubated at 50° C. in the presence of 50 μl of the reagents prepared and/or lyophilisated as above. After 3 minutes of incubation at 50° C., the above-described recovery element is immersed in the solution. The final interpretation is made after 3 minutes of incubation by means of an optical dipstick reader available at Matest (Germany).
(§5) As a general rule, if the ratio of the intensities of the concerned test signal relative to the control signal is less than or equal to 1, the sample is considered as positive for the parameter (compound) concerned.

[2] = tested on: tetracycline receptor (TetR); assay: Example 2 three-parameter dipstick test in milk, tetracycline capture zone (format 1); format: binding, E. Coli
Description: as §1, §2, §3, §4, §5

[3] = tested on: anti-sulfadimethoxin antibody; assay: Example 2 three-parameter dipstick test in milk, sulfadimethoxin capture zone (format 1); format: binding
Description: as §1, §2
The preparation is achieved by the procedure described by Dixon-Holland and Katz^(9). 100 mg of sulfadimethoxin and 200 mg of BSA solubilized in 25 ml of a mixture, comprising two parts of a phosphate buffer of 50 mM, pH 7.2 and 1 part of dioxane, are incubated in the presence of 120 μL of 25% glutaraldehyde stirred for 3 hours at 25° C. The solution is then dialysed for 6 days at 4° C. against 100 volumes of a buffer of NaPi 50 mM, pH 7.2 with a change of buffer every 12 hours.
as §3, §4, §5

β-lactame receptor (RSA) [4] = biological target: T1, β-lactame receptor (RSA); format: binding; settings: milk; remark: listed apart in the source
Description: (§6) The reactive mixture comprises: • 5 parts of β-lactame receptor (RSA) at a concentration of 360 nM; • 10 parts of a monoclonal anti-RSA antibody attached to colloidal gold (OD=10 at 520 nm); • 1 part of biotinylated and diluted anti-sulfadimethoxin in NaPi 50 mM, NaCl 150 mM, pH 7.8; • 10 parts of a dilution of BSA-sulfadimethoxin-gold of 40 nm; • 24 parts of Hepes buffer 120 mM, pH 8, BSA 2%, Dextran 1%, sucrose 5%. This mixture is prepared either as required or lyophilisated for 20 hours. Biotinylation of the Anti-Sulfadimethoxin Antibody
(§7) The recovery system is identical to that of example 1. However, in the present case, it is the biotinylated antisulfamide antibody that will be recovered in the avidine fixed at the second capture point above the control zone.
(§8) 200 μL of cold milk are incubated for 15 minutes at 30° C. in the presence of 50 μL of the reagents prepared above. After this first incubation, the above-described recovery element is immersed in the solution. Final interpretation is made after a second incubation of 15 minutes.

[5] = tested on: biotinylated anti-sulfadimethoxin antibody; assay: Example 3 dipstick test in milk, sulfamide capture zone (format 2); format: binding
Description: as §6
825 μL of a solution comprising 5 mg/ml of anti-sulfadimethoxin antibody dialysed in a carbonate buffer 100 mM, pH 9.2 are incubated in the presence of 165 μL of a solution of biotin-LC-NHS at 1.5 mg/ml (available at Perbio, Inc.) for 2 hours at 25° C. sheltered from light. The reaction is blocked by the addition of 10 μL of a solution of a Tris buffer 1M pH 8 for 30 minutes before dialysis 2× for 10 hours against a buffer of NaPi 50 mM, NaCl 150 mM, pH 7.8.
The preparation of BSA-sulfadimethoxin described in example no. 2 is used fixed to particles of colloidal gold in a protocol similar to that described in example no. 1 for preparing the control BSA-gold solution.
as §7, §8

[6] = tested on: tetracycline receptor (TetR); assay: Example 4 dipstick test in meat (pig muscle) extract, tetracycline capture zone (format 2); format: binding, E. Coli
Description: (§9) This mixture is either prepared as required or lyophilisated for 20 hours. The Recovery System
(§10) The recovery system is similar to that of example 1. However, in the present case, it is an anti-mouse antibody that forms the first capture point where the monoclonal anti-TetR antibody will be recovered and it is a chicken anti-rabbit antibody that forms the second capture point where the antisulfamide antibody will be recovered.
(§11) 30 ml of a buffer of NaPi 50 mM, pH 8 is added to 10 g of pig muscle and the mixture is mixed with a mixer of type MiniMix (Interscience, F) for 2 minutes. The solution, collected in an Eppendorf tube, is then centrifuged for 1 minute at 6,000 rpm to recover the supernatant from it. 200 μL of supernatant are incubated for 15 minutes at 25° C. in the presence of 50 μL of the reagents prepared above. After this first incubation, the above-described recovery element is immersed in the solution. The final interpretation is made after a second incubation of 15 minutes.

[7] = tested on: antisulfamide rabbit antibody; assay: Example 4 dipstick test in meat (pig muscle) extract, sulfamide capture zone (format 2); format: binding
Description: as §9, §10, §11

β-lactame receptor (RSA) [8] = biological target: T1, β-lactame receptor (RSA); format: binding; settings: milk; remark: listed apart in the source
Description: (§12) This mixture is either prepared as required or lyophilisated for 20 hours.
as §8

[9] = tested on: tetracycline receptor (TetR); assay: Example 5 dipstick test in milk, tetracycline capture zone (format 1); format: binding, E. Coli
Description: as §12, §8

[10] = tested on: polyclonal antisulfamide rabbit antibody; assay: Example 5 dipstick test in milk, sulfamide capture zone (format 2); format: binding
Description: as §12, §8

Compound: COc1cc(NS(=O)(=O)c2ccc(N)cc2)nc(OC)n1 [Sulfadimethoxin]
- Ratio of the measurement intensities B/C (β-lactame receptor (RSA) [1]; sulfamide 50 ppb): 2.4
- Ratio of the measurement intensities B/C (β-lactame receptor (RSA) [1]; sulfamide 100 ppb): 2.2
- Ratio of the measurement intensities B/C (β-lactame receptor (RSA) [1]; sulfamide 150 ppb): 1.9
- Ratio of the measurement intensities B/C (β-lactame receptor (RSA) [1]; sulfamide 200 ppb): 2.4
- Ratio of the measurement intensities T/C ([2]; sulfamide 50 ppb): 1.9
- Ratio of the measurement intensities T/C ([2]; sulfamide 100 ppb): 1.9
- Ratio of the measurement intensities T/C ([2]; sulfamide 150 ppb): 2.1
- Ratio of the measurement intensities T/C ([2]; sulfamide 200 ppb): 2.1
- Ratio of the measurement intensities S/C ([3]; ampicillin 4 + tetracycline 75 + sulfamide 100 ppb together): 0.7
- Ratio test/control ([3]; at the detection limit concentration): 0.8
- Concentration detection limit ([3]; sulfadimethoxin, three-parameter test): 100 ppb
- Ratio of the measurement intensities S/C ([3]; sulfamide 50 ppb): 1.3
- Ratio of the measurement intensities S/C ([3]; sulfamide 100 ppb): 0.8
- Ratio of the measurement intensities S/C ([3]; sulfamide 150 ppb): 0.6
- Ratio of the measurement intensities S/C ([3]; sulfamide 200 ppb): 0.4
- Ratio of the measurement intensities B/C (β-lactame receptor (RSA) [4]; sulfamide 50 ppb): 1.95
- Ratio of the measurement intensities B/C (β-lactame receptor (RSA) [4]; sulfamide 100 ppb): 1.9
- Ratio of the measurement intensities B/C (β-lactame receptor (RSA) [4]; sulfamide 150 ppb): 2.2
- Ratio of the measurement intensities B/C (β-lactame receptor (RSA) [4]; sulfamide 200 ppb): 2.1
- Ratio of the measurement intensities S/C ([5]; sulfamide 50 ppb): 2
- Ratio of the measurement intensities S/C ([5]; sulfamide 100 ppb): 1
- Ratio of the measurement intensities S/C ([5]; sulfamide 150 ppb): 0.85
- Ratio of the measurement intensities S/C ([5]; sulfamide 200 ppb): 0.7
- Ratio of the measurement intensities S/C ([5]; β-lactame 4 + sulfamide 100 ppb together): 0.95
- Ratio of the measurement intensities T/C ([6]; sulfamide 50 ppb): 3.4
- Ratio of the measurement intensities T/C ([6]; sulfamide 100 ppb): 3.1
- Ratio of the measurement intensities T/C ([6]; sulfamide 150 ppb): 3.4
- Ratio of the measurement intensities T/C ([6]; sulfamide 200 ppb): 3
- Ratio of the measurement intensities S/C ([7]; sulfamide 50 ppb): 1.6
- Ratio of the measurement intensities S/C ([7]; sulfamide 100 ppb): 1
- Ratio of the measurement intensities S/C ([7]; sulfamide 150 ppb): 0.85
- Ratio of the measurement intensities S/C ([7]; sulfamide 200 ppb): 0.7
- Ratio of the measurement intensities S/C ([7]; tetracycline 100 + sulfamide 100 ppb together): 0.95
- Ratio of the measurement intensities B/C (β-lactame receptor (RSA) [8]; sulfamide 50 ppb): 2.1
- Ratio of the measurement intensities B/C (β-lactame receptor (RSA) [8]; sulfamide 100 ppb): 1.8
- Ratio of the measurement intensities B/C (β-lactame receptor (RSA) [8]; sulfamide 200 ppb): 1.8
- Ratio of the measurement intensities T/C ([9]; sulfamide 50 ppb): 2.8
- Ratio of the measurement intensities T/C ([9]; sulfamide 100 ppb): 2.7
- Ratio of the measurement intensities T/C ([9]; sulfamide 200 ppb): 3
- Ratio of the measurement intensities S/C ([10]; sulfamide 50 ppb): 1.3
- Ratio of the measurement intensities S/C ([10]; sulfamide 100 ppb): 0.9
- Ratio of the measurement intensities S/C ([10]; sulfamide 200 ppb): 0.3
- Ratio of the measurement intensities S/C ([10]; β-lactame 4 + tetracycline 100 + sulfamide 100 ppb together): 0.8
